Experimental data taken from patent US20240336641A1, “3-PYRROLIDINE-INDOLE DERIVATIVES AS SEROTONERGIC PSYCHEDELIC AGENTS FOR THE TREATMENT OF CNS DISORDERS” (Mindset Pharma Inc., priority 2020, published 2024).

How the values were obtained:
[1] = system: head-twitch response (HTR) in male C57BL6 mice; test: Mouse head twitch response (HTR); assay type: in vivo; settings: I-2 10 mg/kg SC, M100907 0.5 mg/kg IP pretreatment
Experimental: FIG. 1. is a graph showing the effect of various doses of exemplary compound of Formula I, 1-2, on head-twitch response (HTR) in male C57BL6 mice. The mice were treated with compound I-2 (0.03-10 mg/kg, SC) by SC route (N=6 mice/dose), and the total number of head twitches were recorded over a 1 h period. Data is expressed as mean±SEM. The induction of head twitches elicited by 5-HT2A receptor agonists is believed to represent a behavioural proxy of their psychedelic effects.
Male C57BL6 mice were pretreated with the selective 5-HT2A receptor antagonist M100907 (0.5 mg/kg IP; also known as volinanserin) prior to the administration of exemplary compound of Formula I, 1-2 (10 mg/kg SC). […] Data is expressed as mean±SEM.
Male, C57BL/6J mice (body weight range 20-30 g) were dosed with the appropriate dose of test article, and following a 1-minute pre-treatment time, placed in individual observation chambers. Animals were visually assessed for the incidence head twitches continuously over a 1 hr period. […] Each head twitch was individually counted by a trained observer, and the data expressed as the mean±SEM of 6-10 mice per group. […]
The effect of various doses of exemplary compound of Formula I, 1-2, on head-twitch response (HTR) in male C57BL6 mice were measured. […] Data is expressed as mean±SEM. […]

[2] = In vivo pharmacokinetics in rats (IV and PO); settings: male SD rats
Experimental: (§1) Formulations were administered intravenously (i.v.) via the tail vein or orally (p.o.) by gavage with disposable feeding needles.
(§2) Serial blood samples were collected via tail snip. Terminal blood samples will be collected under isoflurane anesthesia by cardiac puncture.
(§3) All blood samples were transferred into K2EDTA tubes on wet ice and centrifuged within 5 min (3200×g for 5 min at 4° C.) to obtain plasma. Plasma will be stored at −80° C. until analysis.
(§4) • i. Analysis software: Phoenix® WinNonlin® 8.2 (Pharsight, Certara, Mountainview, CA) • ii. Analysis methods: non-compartmental analysis, linear up/log down trapezoidal rule • iii. PK parameters: C0, t1/2, AUC0-last. AUC0-∞, CL, Vss, MRT, tmax(po), Cmax(po), F, as appropriate

[3] = In vivo pharmacokinetics in mice (IV and PO); settings: male C57BL/6 mice
Experimental: Male C57BL/6 mice (25-30 g) from Charles River Labs were acclimatized for a minimum of 5 days prior to dosing. Body weights will be recorded on the day of dosing.
Animals dosed p.o. were deprived of food overnight and fed ˜2 h following dosing.
as §1, §2, §3, §4

SMILES | effect on head-twitch response (HTR) after pretreatment with selective 5-HT2A antagonist M100907 [1] | biotransformation after administration ([2]; IV (footnote Table 7)) | biotransformation after administration ([2]; oral (footnote Table 8)) | biotransformation after administration ([3]; IV (footnote Table 5)) | biotransformation after administration ([3]; PO table (footnote Table 6 prints IV))
[2H]C([2H])([2H])N1CCC[C@@H]1Cc1c[nH]c2cccc(O)c12 [Compound I-2, (R)-3-((1-(methyl-d3)pyrrolidin-2-yl)methyl)-1H-indol-4-ol] | completely blocked | – | – | – | –
[2H]C([2H])(c1c[nH]c2cccc(OC)c12)[C@H]1CCCN1C([2H])([2H])[2H] [Compound I-39, (R)-4-methoxy-3-((1-(methyl-d3)pyrrolidin-2-yl)methyl-d2)-1H-indole] | – | ^(a)I-39 is hydrolysed to I-44 after IV administration | ^(a)I-39 is hydrolysed to I-44 after oral administration | ^(a)I-39 is hydrolysed to I-44 after IV administration | ^(a)1-39 is hydrolysed to I-44 after IV administration
